According to patent US11034675B2, “Solid forms of Selinexor and process for their preparation” (DR. REDDY'S LABORATORIES LIMITED, priority 2016, dated 2021):

How the values were obtained:
[1] = stability of amorphous form under mechanical stress (grinding, milling); assay type: physicochemical; settings: mechanical stress such as grinding and milling
From the text: (§1) The present application provides a stable amorphous form of Selinexor suitable for powder handling and downstream processes. […] In an embodiment, the present application provides a stable amorphous form of Selinexor with less than 5% of crystallinity, preferably with less than 1% crystallinity and more preferably devoid of crystallinity as per X-ray diffraction analysis.

[2] = stability of amorphous form under hygroscopic conditions (higher relative humidity); assay type: physicochemical; settings: higher relative humidity conditions of more than 60% RH
From the text: as §1

stability under mechanical stress [1]: highly stable
stability under hygroscopic conditions [2]: stable
Compound: O=C(/C=C\n1cnc(-c2cc(C(F)(F)F)cc(C(F)(F)F)c2)n1)NNc1cnccn1 [Amorphous form of Selinexor, (Z)-3-(3-(3,5-bis(trifluoromethyl)phenyl)-IH—I,2,4-triazol-1-yl)-N′-(pyrazin-2yl) acrylohydrazide]
